Literature values in patent publication US20230200430A1, “ORAL PRODUCTS WITH HIGH-DENSITY LOAD” (NICOVENTURES TRADING LIMITED, priority 2021, published 2023).

Conditions: qualitative statement

Row | SMILES | solubility in water / aqueous environment
1 | CC(/C=C/C=C(C)/C=C/C(=O)O)=C\C=C\C=C(C)\C=C\C=C(C)\C=C\C(=O)O (stereo in doubt) [norbixin, (2E,4E,6E,8E,10E,12E,14E,16E,18E)-4,8,13,17-tetramethylicosa-2,4,6,8,10,12,14,16,18-nonaenedioic acid] | water soluble
2 | COC(=O)/C=C/C(C)=C\C=C\C(C)=C\C=C\C=C(C)\C=C\C=C(C)\C=C\C(=O)O [Bixin] | insoluble in water
3 | C=C(C)[C@@H]1CCC(C)=C[C@H]1c1c(O)cc(CCCCC)cc1O [CBD, cannabidiol, reference compound] | insoluble in an aqueous environment
